# Measurements taken from US9181249B2, “Substituted pyrido[3,4-b]pyrazines as GPR6 modulators” (Takeda Pharmaceutical Company Limited, priority 2013, dated 2015).
# Marks after values point to notes of the source that are not given here.
# What was measured:
# [1] = tested on: haloperidol-induced catalepsy; assay: Example B Haloperidol-Induced Catalepsy In Vivo Rodent Parkinson's Disease Model; details: Rat
# Source text: Haloperidol-Induced Catalepsy In Vivo Rodent Parkinson's Disease Model
# The motor symptoms of Parkinson's disease include akinesia, bradykinesia, rigidity, tremor and postural abnormalities and are associated with the loss of nigral dopaminergic cells and a decline in striatal dopamine levels. Administration of haloperidol to rodents leads to a transient parkinsonian-like state that is reversed by the administration of L-Dopa (Duty, S.; Jenner, P. Br. J. Pharmacol. (2011), 164, 1357-1391) and other drugs that have been clinically validated for the treatment of Parkinson's disease. Haloperidol antagonizes dopamine D2 and, to a lesser extent, D1 receptors in medium spiny neurons that comprise the indirect and direct pathways of the motor circuit respectively. The resultant block of striatal dopamine transmission results in abnormal downstream firing within the basal ganglia circuits that is manifest as symptoms of muscle rigidity and catalepsy. Catalepsy has been postulated to reflect the clinical features of Parkinson's disease, whereby patients experience an inability of to initiate movements.
# Male Sprague-Dawley rats (Charles River, Calco, Italy) weighing 175-200 g are used. Alternatively, male C57Bl6 mice weighing 25-35 g were used. The cataleptic state was induced by the subcutaneous administration of the dopamine receptor antagonist haloperidol (0.3 mg/kg, sc), 90 min before testing the animals on the vertical grid test. For this test, the rats or mice were placed on the wire mesh cover of a 25 cm×43 cm plexiglass cage placed at an angle of about 70 degrees with the bench table. The subject was placed on the grid with all four legs abducted and extended (“frog posture”). The use of such an unnatural posture is essential for the specificity of this test for catalepsy. The time span from placement of the paws until the first complete removal of one paw (descent latency) was measured maximally for 120 sec for rats. For mice, the front paws of a mouse was placed on a horizontal metal bar raised 2″ above a Plexiglas platform and time was recorded for up to 30 seconds per trial. The test ended when the animal's front paws returned to the platform or after 30 seconds. The test was repeated three times and the average of the three trials was reported as the intensity index of catalepsy.
# Catalepsy was measured 30 min, 120 min, and/or 240 min after dosing the subjects a 0.3 mg/kg i.p. dose of haloperidol along with the GPR6 modulator test compound. Test compound plasma and brain levels were determined by collected tissue samples at the end of the experiment, which was either at the 120 or 240 min time point. A representative number of compounds of the invention were administered in a dose range from 0.1 to 100 mg/kg i.p, sc or po in conjunction with haloperidol. The A2a antagonist KW6002 (istradefylline) was dosed at 0.6 mg/kg i.p. as a positive control.
# [2] = tested on: 6-hydroxydopamine lesioned rats (motor activity); assay: Example C 6-Hydroxydopamine Lesion Model In Vivo Rodent Parkinson's Disease Model; details: adult female rats, bilateral striatal 6-hydroxydopamine lesion, counts for 3 hours after dosing
# Protocol: 6-Hydroxydopamine Lesion Model In Vivo Rodent Parkinson's Disease Model
# Adult female rats (10) were first assessed for pre-surgery motor activity using an automated activity tracking system that records beam breaks across the testing arena floor. Beam breaks were summed over the first 3 hours after the animals were placed into the arena and recorded as activity counts. To selectively damage dopaminergic nerve terminals in the striatum, 20 μg of the 6-hydroxydopamine was injected directly into the striatum bilaterally (i.e., on both sides of the brain). After 4 weeks of recovery, the rats were again tested for motor activity, and a significant reduction in activity counts was observed. Vehicle and the compound of Example 47 (0.5% methylcellulose) was orally dosed at 0.1, 1.0, or 10 mg/kg in a cross-over study design (5-10 day wash out period), and after dosing activity counts were measured for 3 hours. At the end of the study period, when each animal had received each treatment once, the data were analyzed. The activity counts (standard error of the mean) for the group pre-surgery and post-surgery and for treated and vehicle control were determined and are provide in Table 3 below: […]
structure (smiles),measurement,setting,value
"CC(=O)N1CCc2nc(N3CCC(Oc4ccc(F)cc4F)CC3)c(NC(C)C)nc2C1 [Example 47, 1-(2-(4-(2,4-difluorophenoxyl)piperidin-1-yl)-3-(isopropylamino)-7,8-dihydropyrido[3,4-b]pyrazin-6(5H)-yl)ethanone]",% reversal 30 min,[1]; 0.1 mpk i.p.,−5.7%
same,% reversal 120 min,[1]; 0.1 mpk i.p.,27.3%
same,% reversal 30 min,[1]; 1 mpk i.p.,39.1%
same,% reversal 120 min,[1]; 1 mpk i.p.,57.9* %
same,% reversal 30 min,[1]; 10 mpk i.p.,83.4* %
same,% reversal 120 min,[1]; 10 mpk i.p.,76.5* %
same,% reversal 30 min,[1]; 30 mpk i.p.,75.7* %
same,% reversal 120 min,[1]; 30 mpk i.p.,82.1* %
same,"activity counts, Mean",[2]; orally dosed 0.1 mg/kg,11422*
same,"activity counts, Mean",[2]; orally dosed 1.0 mg/kg,15334*
same,"activity counts, Mean",[2]; orally dosed 10 mg/kg,19368*
